Data as given in patent US20110195900A1, “PEPTIDIC PTH RECEPTOR AGONISTS” (FERRING B.V., priority 2008, published 2011).
Non-standard residues stand in square brackets, D forms with d. Residues, ends and D or L forms follow the SMILES beside them. 1Nal = N[C@@H](Cc1cccc2ccccc12)C(=O)O; β3hI = CC[C@H](C)[C@H](N)CC(=O)O; Nle = CCCC[C@H](N)C(=O)O; Aib = CC(C)(N)C(=O)O

Target: T1, human PTH-1 receptor (Homo sapiens, UniProt Q03431)
T1 construct: expressed in transfected cells; host or cells: HEK-293
T1 sequence (Q03431 27-593): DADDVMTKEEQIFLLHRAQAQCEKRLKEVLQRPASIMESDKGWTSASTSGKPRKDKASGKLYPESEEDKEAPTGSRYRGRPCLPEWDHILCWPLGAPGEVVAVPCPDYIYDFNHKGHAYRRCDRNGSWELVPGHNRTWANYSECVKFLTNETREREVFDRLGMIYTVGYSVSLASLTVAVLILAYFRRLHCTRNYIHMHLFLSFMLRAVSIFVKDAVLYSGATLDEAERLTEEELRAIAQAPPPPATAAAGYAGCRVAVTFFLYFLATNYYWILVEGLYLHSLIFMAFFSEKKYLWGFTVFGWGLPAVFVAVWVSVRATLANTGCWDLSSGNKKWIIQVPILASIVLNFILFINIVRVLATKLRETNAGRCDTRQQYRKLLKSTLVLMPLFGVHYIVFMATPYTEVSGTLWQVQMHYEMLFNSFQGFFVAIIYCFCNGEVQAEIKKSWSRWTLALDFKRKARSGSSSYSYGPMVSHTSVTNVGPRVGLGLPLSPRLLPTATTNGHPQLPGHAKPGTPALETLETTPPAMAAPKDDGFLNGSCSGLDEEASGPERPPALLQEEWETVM
Test: Reporter gene assay (CRE-luciferase) for agonist activity in transiently transfected HEK-293 cells
Type: cell-based
Conditions: for hPTHR-2/hPTHR-1: Table 3, ratio of EC50 values, selectivity for hPTH-1 receptor over hPTH-2 receptor
Method: Agonist activity of compounds on the human PTH-1 receptor was determined in a reporter gene assay by transiently transfecting HEK-293 cells with plasmids encoding human PTH-1 receptor under control of the SV40 promoter and a luciferase reporter gene under control of cAMP responsive elements (CRE). See Himmler et al, J. Recept. Res. 13 (1993) 79-94, for further guidance on this assay. Transfected cells were exposed to serial dilutions of compounds for 4-5 hours followed by lysis of cells, determination of luciferase activity, and determination of compound efficacies and EC50 values through non-linear regression.
PTH (1-34) was used as an internal control in each experiment and compounds were tested in at least three independent experiments. To determine selectivity, compounds were tested in luciferase-based transcriptional reporter gene assays expressing the human PTH-2 receptor.

Structure (SMILES)	hPTHR-2/hPTHR-1	EC50
CCCC[C@H](NC(=O)[C@H](CC(C)C)NC(=O)[C@H](CCC(N)=O)NC(=O)[C@@H](NC(=O)[C@H](CCC(=O)O)NC(=O)[C@H](CO)NC(=O)[C@@H](NC(=O)[C@@H](N)CO)C(C)C)[C@@H](C)CC)C(=O)N[C@@H](Cc1c[nH]cn1)C(=O)N[C@@H](CC(N)=O)C(=O)N[C@@H](CC(C)C)C(=O)NCC(=O)N[C@@H](CCCCN)C(=O)N[C@@H](Cc1c[nH]cn1)C(=O)N[C@@H](CC(C)C)C(=O)N[C@@H](CCC(=O)O)C(=O)N[C@@H](CO)C(=O)N[C@H](CC(=O)N[C@@H](CCC(=O)O)C(=O)N[C@@H](CCCNC(=N)N)C(=O)N[C@H](C(=O)N[C@@H](CCC(=O)O)C(=O)N[C@@H](Cc1cccc2ccccc12)C(=O)N[C@@H](CC(C)C)C(=O)N[C@@H](CCCNC(=N)N)C(=O)N[C@@H](CCCCN)C(=O)N[C@@H](CC(C)C)C(=O)N[C@@H](CC(C)C)C(=O)N[C@@H](CCC(N)=O)C(=O)N[C@@H](CC(=O)O)C(=O)N[C@H](C(=O)N[C@@H](Cc1c[nH]cn1)C(=O)N[C@@H](CC(N)=O)C(=O)N[C@@H](Cc1ccccc1)C(N)=O)C(C)C)C(C)C)[C@@H](C)CC [SEQ ID NO: 21, [Nle^8, Glu^16, β-hIle^18,1-Nal^23, Leu^27] hPTH (1-34)-NH2] (H-SVSEIQL[Nle]HNLGKHLES[β3hI]ERVE[1Nal]LRKLLQDVHNF-NH2)	234	–
CCCC[C@H](NC(=O)[C@H](CC(C)C)NC(=O)[C@H](CCC(N)=O)NC(=O)[C@@H](NC(=O)[C@H](CCC(=O)O)NC(=O)[C@H](CO)NC(=O)[C@@H](NC(=O)[C@@H](N)CO)C(C)C)[C@@H](C)CC)C(=O)N[C@@H](Cc1c[nH]cn1)C(=O)N[C@@H](CC(N)=O)C(=O)N[C@@H](CC(C)C)C(=O)NCC(=O)N[C@@H](CCCCN)C(=O)N[C@@H](Cc1c[nH]cn1)C(=O)N[C@@H](CC(C)C)C(=O)N[C@@H](CO)C(=O)N[C@@H](CO)C(=O)N[C@H](CC(=O)N[C@@H](CCC(=O)O)C(=O)N[C@@H](CCCNC(=N)N)C(=O)N[C@H](C(=O)N[C@@H](CCC(=O)O)C(=O)N[C@@H](Cc1cccc2ccccc12)C(=O)N[C@@H](CC(C)C)C(=O)N[C@@H](CCCNC(=N)N)C(=O)N[C@@H](CCCCN)C(=O)N[C@@H](CC(C)C)C(=O)N[C@@H](CC(C)C)C(=O)N[C@@H](CCC(N)=O)C(=O)N[C@@H](CC(=O)O)C(=O)N[C@H](C(=O)N[C@@H](Cc1c[nH]cn1)C(=O)N[C@@H](CC(N)=O)C(=O)N[C@@H](Cc1ccccc1)C(N)=O)C(C)C)C(C)C)[C@@H](C)CC [SEQ ID NO: 22, [Nle^8, Ser^16, β-hIle^18,1-Nal^23, Leu^27] hPTH (1-34)-NH2] (H-SVSEIQL[Nle]HNLGKHLSS[β3hI]ERVE[1Nal]LRKLLQDVHNF-NH2)	101	0.19 nM
CCCC[C@H](NC(=O)[C@H](CC(C)C)NC(=O)[C@H](CCC(N)=O)NC(=O)[C@@H](NC(=O)[C@H](CCC(=O)O)NC(=O)[C@H](CO)NC(=O)[C@@H](NC(=O)[C@@H](N)CO)C(C)C)[C@@H](C)CC)C(=O)N[C@@H](Cc1c[nH]cn1)C(=O)N[C@@H](CC(N)=O)C(=O)N[C@@H](CC(C)C)C(=O)NCC(=O)N[C@@H](CCCCN)C(=O)N[C@@H](Cc1c[nH]cn1)C(=O)N[C@@H](CC(C)C)C(=O)N[C@@H](CC(N)=O)C(=O)N[C@@H](CO)C(=O)N[C@H](CC(=O)N[C@@H](CCC(=O)O)C(=O)N[C@@H](CCCNC(=N)N)C(=O)N[C@H](C(=O)N[C@@H](CCC(=O)O)C(=O)N[C@@H](Cc1cccc2ccccc12)C(=O)N[C@@H](CC(C)C)C(=O)N[C@@H](CCCNC(=N)N)C(=O)N[C@@H](CCCCN)C(=O)N[C@@H](CC(C)C)C(=O)N[C@@H](CC(C)C)C(=O)N[C@@H](CCC(N)=O)C(=O)N[C@@H](CO)C(=O)N[C@H](C(=O)N[C@@H](Cc1c[nH]cn1)C(=O)N[C@@H](CC(N)=O)C(=O)N[C@@H](Cc1ccccc1)C(N)=O)C(C)C)C(C)C)[C@@H](C)CC [SEQ ID NO: 26, [Nle^8, β-hIle^18,1-Nal^23, Leu^27, Ser^30] hPTH (1-34)-NH2] (H-SVSEIQL[Nle]HNLGKHLNS[β3hI]ERVE[1Nal]LRKLLQSVHNF-NH2)	98	0.19 nM
CCCC[C@H](NC(=O)[C@H](CC(C)C)NC(=O)[C@H](CCC(N)=O)NC(=O)[C@@H](NC(=O)[C@H](CCC(=O)O)NC(=O)[C@H](CO)NC(=O)[C@@H](NC(=O)[C@@H](N)CO)C(C)C)[C@@H](C)CC)C(=O)N[C@@H](Cc1c[nH]cn1)C(=O)N[C@@H](CC(N)=O)C(=O)N[C@@H](CC(C)C)C(=O)NCC(=O)N[C@@H](CCCCN)C(=O)N[C@@H](Cc1c[nH]cn1)C(=O)N[C@@H](CC(C)C)C(=O)N[C@@H](CC(N)=O)C(=O)N[C@@H](CO)C(=O)N[C@H](CC(=O)N[C@@H](CCC(=O)O)C(=O)N[C@@H](CCCNC(=N)N)C(=O)N[C@H](C(=O)N[C@@H](CCC(=O)O)C(=O)N[C@@H](Cc1cccc2ccccc12)C(=O)N[C@@H](CC(C)C)C(=O)N[C@@H](CCCNC(=N)N)C(=O)N[C@@H](CCCCN)C(=O)N[C@@H](CC(C)C)C(=O)N[C@@H](CC(C)C)C(=O)N[C@@H](CCC(N)=O)C(=O)N[C@@H](CC(=O)O)C(=O)N[C@H](C(=O)N[C@@H](Cc1c[nH]cn1)C(=O)N[C@@H](CCC(=O)O)C(=O)N[C@@H](Cc1ccccc1)C(N)=O)C(C)C)C(C)C)[C@@H](C)CC [SEQ ID NO: 27, [Nle^8, β-hIle^18,1-Nal^23, Leu^27, Glu^33] hPTH (1-34)-NH2] (H-SVSEIQL[Nle]HNLGKHLNS[β3hI]ERVE[1Nal]LRKLLQDVHEF-NH2; N-terminus assumed)	344	0.12 nM
CCCC[C@H](NC(=O)[C@H](CC(C)C)NC(=O)[C@H](CCC(N)=O)NC(=O)[C@@H](NC(=O)[C@H](CCC(=O)O)NC(=O)[C@H](CO)NC(=O)[C@@H](NC(=O)[C@@H](N)CO)C(C)C)[C@@H](C)CC)C(=O)N[C@@H](Cc1c[nH]cn1)C(=O)N[C@@H](CC(N)=O)C(=O)N[C@@H](CC(C)C)C(=O)NCC(=O)N[C@@H](CCCCN)C(=O)N[C@@H](Cc1c[nH]cn1)C(=O)N[C@@H](CC(C)C)C(=O)N[C@@H](CC(N)=O)C(=O)N[C@@H](CO)C(=O)N[C@H](CC(=O)N[C@@H](CCC(=O)O)C(=O)N[C@@H](CCCNC(=N)N)C(=O)N[C@H](C(=O)N[C@@H](CCC(=O)O)C(=O)N[C@@H](Cc1cccc2ccccc12)C(=O)N[C@@H](CC(C)C)C(=O)N[C@@H](CCCNC(=N)N)C(=O)N[C@@H](CCCCN)C(=O)N[C@@H](CC(C)C)C(=O)N[C@@H](CC(C)C)C(=O)N[C@@H](CCC(N)=O)C(=O)N[C@@H](CC(=O)O)C(=O)N[C@H](C(=O)N[C@@H](Cc1c[nH]cn1)C(=O)N[C@@H](CC(N)=O)C(=O)N[C@@H](CCC(=O)O)C(N)=O)C(C)C)C(C)C)[C@@H](C)CC [SEQ ID NO: 29, [Nle^8, β-hIle^18,1-Nal^23, Leu^27, Glu^34] hPTH (1-34)-NH2] (H-SVSEIQL[Nle]HNLGKHLNS[β3hI]ERVE[1Nal]LRKLLQDVHNE-NH2; N-terminus assumed)	474	0.12 nM
CCCC[C@H](NC(=O)[C@H](CC(C)C)NC(=O)[C@H](CCC(N)=O)NC(=O)[C@@H](NC(=O)[C@H](CCC(=O)O)NC(=O)[C@H](CO)NC(=O)[C@@H](NC(=O)[C@@H](N)CO)C(C)C)[C@@H](C)CC)C(=O)N[C@@H](Cc1c[nH]cn1)C(=O)N[C@@H](CC(N)=O)C(=O)N[C@@H](CC(C)C)C(=O)NC(C)(C)C(=O)NC(C)(C)C(=O)N[C@@H](Cc1c[nH]cn1)C(=O)N[C@@H](CC(C)C)C(=O)N[C@@H](CC(N)=O)C(=O)N[C@@H](CO)C(=O)N[C@H](CC(=O)N[C@@H](CCC(=O)O)C(=O)N[C@@H](CCCNC(=N)N)C(=O)N[C@H](C(=O)N[C@@H](CCC(=O)O)C(=O)N[C@@H](Cc1cccc2ccccc12)C(=O)N[C@@H](CC(C)C)C(=O)N[C@@H](CCCNC(=N)N)C(=O)N[C@@H](CCCCN)C(=O)N[C@@H](CC(C)C)C(=O)N[C@@H](CC(C)C)C(=O)N[C@@H](CCC(N)=O)C(=O)N[C@@H](CC(=O)O)C(=O)N[C@H](C(=O)N[C@@H](Cc1c[nH]cn1)C(=O)N[C@@H](CC(N)=O)C(=O)N[C@@H](Cc1ccccc1)C(N)=O)C(C)C)C(C)C)[C@@H](C)CC [SEQ ID NO: 31, [Nle^8, Aib^12,13, β-hIle^18,1-Nal^23, Leu^27] hPTH (1-34)-NH2] (H-SVSEIQL[Nle]HNL[Aib][Aib]HLNS[β3hI]ERVE[1Nal]LRKLLQDVHNF-NH2; N-terminus assumed)	138	0.25 nM
